One data set deals with HeLa cells. The data set is described as follows: Effect on HeLa Cells Cloning Efficiency In Vitro. It counts as cell-based. To be noted: for IC50: Homo sapiens, HeLa, read-out: ID50 (HeLa cells cloning efficiency); for cytotoxicity relative to parent compounds: in words, vs respective parent compounds (Table 1). On the procedure: ^(a) HeLa cells were exposed to the test compounds for 24 hours, then
plated. The number of colonies was evaluated 5 days later.

The subject of a further data set is P-388 ascitic leukemia. In words: Antitumor Activity on Ascitic P 388 Leukemia in Mice. The format is in vivo. The following applies: for in vivo toxicity: even at a dose of 200 mg/kg; for antitumor activity relative to daunorubicin: vs daunorubicin in the same experiment; for antitumor activity relative to parent compounds: at the maximal tolerated dose; for in vivo toxicity relative to parent compounds: vs parent compounds. On the procedure:
Several of the new compounds of the invention were tested on HeLa cells cloning efficiency in vitro and on P-388 ascitic leukemia in mice, in comparison with daunorubicin and doxorubicin.
Antitumor Activity on Ascitic P 388 Leukemia in Mice
^(a) Mice were treated i.p. on day 1 after tumor cells inoculation.
^(b) Median survival time of treated mice/median survival time of
^(c) Evaluated on the basis of macroscopic autoptic findings.
^(d) Data of two separate experiments.

Where [1] appears, read: 24 hours exposure, then plated, colonies evaluated 5 days later.

Molecules are shown by their SMILES. Converted amounts (≈) assume the structure as drawn. Where a name gives a salt, the structure may show the parent alone. Read-outs that look alike come from different tables or passages of the source.

For the compound `COc1cccc2c1C(=O)c1c(cc3c(c1OC)[C@@H](O[C@H]1C[C@H](N)[C@H](OC)[C@H](C)O1)C[C@](O)(C(C)=O)C3)C2=O` [IV, 4',6-di-O-methyl-11-deoxy-daunorubicin], the IC50 in the data set with HeLa cells (setting [1]) amounted to 1 µg/mL (≈ 1.85 µM).
Regarding `COc1cccc2c1C(=O)c1c(O)c3c(c(O)c1C2=O)C[C@@](O)(C(C)=O)C[C@@H]3O[C@H]1C[C@H](N)[C@H](O)[C@H](C)O1` [Daunorubicin . HCl, daunorubicin, reference compound], the IC50 in the data set with HeLa cells (24 h) was found to be 0.0072 µg/mL. In addition, the “Toxic Deaths (macroscopic autoptic findings)” value (“Toxic Deaths” for short) was 0/10 in the data set on P-388 ascitic leukemia (2.9 mg/kg i.p. day 1, two separate experiments, first value); 0/8 in the data set on P-388 ascitic leukemia (2.9 mg/kg i.p. day 1, two separate experiments, second value); 3/10 in the data set on P-388 ascitic leukemia (4.4 mg/kg i.p. day 1, two separate experiments, first value); 0/6 in the data set on P-388 ascitic leukemia (4.4 mg/kg i.p. day 1, two separate experiments, second value); 8/10 in the data set with P-388 ascitic leukemia (6.6 mg/kg i.p. day 1, two separate experiments, first value); 0/6 in the data set on P-388 ascitic leukemia (6.6 mg/kg i.p. day 1, two separate experiments, second value).
Consider `COc1cccc2c1C(=O)c1c(O)c3c(c(OC)c1C2=O)C[C@@](O)(C(C)=O)C[C@@H]3O[C@H]1C[C@H](N)[C@H](O)[C@H](C)O1` [VI, 11-O-methyl-daunorubicin], for which the IC50 with HeLa cells (setting [1]) came out at 0.4 µg/mL (≈ 0.739 µM). Further, in the data set with HeLa cells, the “cytotoxicity relative to parent compounds” value is reported as “markedly less cytotoxic than are their parent compounds”. For the same compound, in the data set on P-388 ascitic leukemia (100 mg/kg i.p. day 1), the “T/C (median survival time of treated mice/control mice × 100)” value was 111% and the “Toxic Deaths” value is listed as 0/4. Moreover, in the data set on P-388 ascitic leukemia (200 mg/kg i.p. day 1), the “T/C (median survival time of treated mice/control mice × 100)” value turned out to be 122% and the “Toxic Deaths” value is listed as 0/3. In the data set with P-388 ascitic leukemia (in words), the in vivo toxicity result is given as “not toxic” and the “antitumor activity relative to daunorubicin” value was “comparable to that of daunorubicin”.
On to `COc1cccc2c1C(=O)c1c(cc3c(c1O)[C@@H](O[C@H]1C[C@H](N)[C@H](OC)[C@H](C)O1)C[C@](O)(C(=O)CO)C3)C2=O` [III, 4'-O-methyl-11-deoxy-doxorubicin], for which the IC50 with HeLa cells (setting [1]) is 0.022 µg/mL (≈ 0.0406 µM). Further, the “cytotoxicity relative to parent compounds” value in the data set on HeLa cells is on record as “less cytotoxic than their respective parent compounds”. In addition, in the data set with P-388 ascitic leukemia (6.6 mg/kg i.p. day 1), the “T/C (median survival time of treated mice/control mice × 100)” value came to 195% and the “Toxic Deaths” value is 0/8. For the same compound, in the data set on P-388 ascitic leukemia (10 mg/kg i.p. day 1), the “T/C (median survival time of treated mice/control mice × 100)” value is listed as 209% and the “Toxic Deaths” value was 0/8. For the same compound, in the data set with P-388 ascitic leukemia (15 mg/kg i.p. day 1), the “T/C (median survival time of treated mice/control mice × 100)” value was found to be 238% and the “Toxic Deaths” value is 0/7. Further, in the data set with P-388 ascitic leukemia (22.5 mg/kg i.p. day 1), the “T/C (median survival time of treated mice/control mice × 100)” value is 214% and the “Toxic Deaths” value is listed as 0/10. Further, in the data set on P-388 ascitic leukemia (in words), the “range of active and non-toxic doses” value was “wide range of active and non-toxic doses”; the “antitumor activity relative to parent compounds” value is reported as “comparable to that of the parent compounds”; the “in vivo toxicity relative to parent compounds” value was “less toxic in vivo”.
With `COc1cccc2c1C(=O)c1c(O)c3c(c(OC)c1C2=O)C[C@@](O)(C(C)=O)C[C@@H]3O[C@H]1C[C@H](N)[C@H](OC)[C@H](C)O1` [VIII, 4',11-di-O-methyl-daunorubicin], the IC50 in the data set on HeLa cells (setting [1]) is 0.5 µg/mL (≈ 0.9 µM). Also, the “cytotoxicity relative to parent compounds” value in the data set on HeLa cells is recorded as “markedly less cytotoxic than are their parent compounds”. In addition, in the data set with P-388 ascitic leukemia (100 mg/kg i.p. day 1), the “T/C (median survival time of treated mice/control mice × 100)” value was found to be 111% and the “Toxic Deaths” value is listed as 0/6. In the data set on P-388 ascitic leukemia (200 mg/kg i.p. day 1), the “T/C (median survival time of treated mice/control mice × 100)” value worked out at 122% and the “Toxic Deaths” value was 0/6. In the data set on P-388 ascitic leukemia (in words), the in vivo toxicity result is listed as “not toxic” and the “antitumor activity relative to daunorubicin” value is recorded as “comparable to that of daunorubicin”.
As to `COc1cccc2c1C(=O)c1c(cc3c(c1O)[C@@H](O[C@H]1C[C@H](N)[C@H](OC)[C@H](C)O1)C[C@](O)(C(C)=O)C3)C2=O` [II, 4'-O-methyl-11-deoxy-daunorubicin], in the data set on HeLa cells (setting [1]), the IC50 was 0.066 µg/mL (≈ 0.126 µM). The “cytotoxicity relative to parent compounds” value in the data set with HeLa cells is on record as “less cytotoxic than their respective parent compounds”. Also, in the data set with P-388 ascitic leukemia (25 mg/kg i.p. day 1), the “T/C (median survival time of treated mice/control mice × 100)” value is listed as 180% and the “Toxic Deaths” value is 0/9. Also, in the data set with P-388 ascitic leukemia (50 mg/kg i.p. day 1), the “T/C (median survival time of treated mice/control mice × 100)” value is given as 225% and the “Toxic Deaths” value was 1/9. Moreover, in the data set on P-388 ascitic leukemia (in words), the “antitumor activity relative to parent compounds” value is “comparable to that of the parent compounds” and the “in vivo toxicity relative to parent compounds” value was “less toxic in vivo”.
With `COc1cccc2c1C(=O)c1c(O)c3c(c(O)c1C2=O)C[C@@](O)(C(=O)CO)C[C@@H]3O[C@H]1C[C@H](N)[C@H](O)[C@H](C)O1` [Doxorubicin . HCl (adriamycin), doxorubicin, reference compound], in the data set with HeLa cells (24 h), the IC50 was 0.0095 µg/mL. Also, the “T/C (median survival time of treated mice/control mice × 100)” value was 219% with P-388 ascitic leukemia (4.4 mg/kg i.p. day 1), 223% in the data set with P-388 ascitic leukemia (6.6 mg/kg i.p. day 1) and 180% with P-388 ascitic leukemia (10 mg/kg i.p. day 1). Further, the “Toxic Deaths” value in the data set with P-388 ascitic leukemia (4.4 mg/kg i.p. day 1) is 0/8; in the data set with P-388 ascitic leukemia (6.6 mg/kg i.p. day 1), 0/8; with P-388 ascitic leukemia (10 mg/kg i.p. day 1), 4/8.

These data come from patent US4322412A, “Anthracycline glycosides, their preparation, use and compositions thereof” (priority 1979, dated 1982).
